These results are taken from US20250136581A1, “SUBSTITUTED TRIAZOLE DERIVATIVE, PREPARATION METHOD THEREFOR, PHARMACEUTICAL COMPOSITION THEREOF, AND USE THEREOF” (SHANGHAI SIMR BIOTECHNOLOGY CO., LTD., priority 2021, published 2025).

pKi: −log10 of the molar value.

Usually pKi stands for −log10 of the Ki, conventionally taken in molar units.

The assay concerns the target human α5β3γ2 receptors (α5-GABAA receptor) (Homo sapiens (Human), UniProt P18507+P31644). Description: 3H-flunitrazepam competition binding, human α5β3γ2 GABAA receptor. The following applies: HEK293 cell membranes, 1 nM 3H-flunitrazepam; read-out: α5-GABAAR Ki. In outline: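 HEK293 membranes stably expressing each human receptor subtype ([…]) competed against 1 nM 3H-flunitrazepam in Tris buffer, 1 h at room temperature; flumazenil defined the low-signal control. Eight-point 4-fold test-compound dilutions; GF/C filtration and scintillation counting gave IC50 by curve fitting, converted to Ki.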
With `Cc1nnn(-c2ccc(C(F)F)cc2)c1COc1ccc(N2CC(=O)N3CCS(=O)(=O)C[C@@H]3C2)nn1` [Example 176, (S)-8-(6-((1-(4-(Difluoromethyl)phenyl)-4-methyl-1H-1,2,3-triazol-5-yl)methoxy)pyridazin-3-yl)hexahydropyrazino[2,1-c][1,4]thiazin-6(1H)-one 2,2-dioxide], the negative logarithm of the Ki (pKi) is 8.87. The result for `Cc1nnn(-c2ccc(C(F)F)cc2)c1COc1ccc(N2CC(=O)N3C[C@@H]4C[C@]3(CO4)C2)nn1` [Example 177, (3S,9aR)-8-(6-((1-(4-(Difluoromethyl)phenyl)-4-methyl-1H-1,2,3-triazol-5-yl)methoxy)pyridazin-3-yl)tetrahydro-1H-3,9a-methanopyrazino[2,1-c][1,4]oxazin-6(7H)-one] reads 8.90. For `Cc1nnn(-c2ccc(C(F)F)cc2)c1COc1ccc(N2CC(=O)N3CC4CC3(C4)C2)nn1` [Example 179, 2-(6-((1-(4-(Difluoromethyl)phenyl)-4-methyl-1H-1,2,3-triazol-5-yl)methoxy)pyridazin-3-yl)tetrahydro-6H-7,8a-methanopyrrolo[1,2-a]pyrazin-4(1H)-one], the pKi is 8.20.

As to `O=C1CN(c2ccc(OCc3c(Cl)nnn3-c3ccc(C(F)F)cc3)nn2)C[C@@H]2COCCN12` [Example 182, (R)-8-(6-((4-Chloro-1-(4-(difluoromethyl)phenyl)-1H-1,2,3-triazol-5-yl)methoxy)pyridazin-3-yl)hexahydropyrazino[2,1-c][1,4]oxazin-6(1H)-one], the negative logarithm of the Ki (pKi) was 9.15.

As to `O=C1CN(c2ccc(OCc3c(Cl)nnn3-c3ccc(C(F)F)cc3)nn2)C[C@H]2COCCN12` [Example 183, (S)-8-(6-((4-Chloro-1-(4-(difluoromethyl)phenyl)-1H-1,2,3-triazol-5-yl)methoxy)pyridazin-3-yl)hexahydropyrazino[2,1-c][1,4]oxazin-6(1H)-one], the negative logarithm of the Ki (pKi) is 8.86.

Consider `O=C1NCCN2CCN(c3ccc(OCc4c(C(F)F)nnn4-c4ccc(C(F)F)cc4)nn3)C[C@@H]12` [Example 184, (S)-8-(6-((4-(Difluoromethyl)-1-(4-(difluoromethyl)phenyl)-1H-1,2,3-triazol-5-yl)methoxy)pyridazin-3-yl)hexahydro-2H-pyrazino[1,2-a]pyrazin-1(6H)-one], for which the pKi was 8.60. In the case of `O=C1CN(c2ccc(OCc3c(C(F)F)nnn3-c3ccc(C(F)F)cc3)nn2)CCN1` [Example 185, 4-(6-((4-(Difluoromethyl)-1-(4-(difluoromethyl)phenyl)-1H-1,2,3-triazol-5-yl)methoxy)pyridazin-3-yl)piperazin-2-one], the pKi was 9.02. The result for `O=C1CN(c2ccc(OCc3c(CC4CC4)nnn3-c3ccc(C(F)F)cc3)nn2)CCN1` [Example 186] reads 8.34; that for `O=C1NCCN2CCN(c3ccc(OCc4c(CC5CC5)nnn4-c4ccc(C(F)F)cc4)nn3)C[C@@H]12` [Example 187, (S)-8-(6-((4-(Cyclopropylmethyl)-1-(4-(difluoromethyl)phenyl)-1H-1,2,3-triazol-5-yl)methoxy)pyridazin-3-yl)hexahydro-2H-pyrazino[1,2-a]pyrazin-1(6H)-one], 7.95; that for `Cc1cc(-c2nnn(-c3ccc(C(F)F)cc3)c2COc2ccc(N3CCNC(=O)C3)nn2)no1` [Example 188, 4-(6-((1-(4-(Difluoromethyl)phenyl)-4-(5-methylisoxazol-3-yl)-1H-1,2,3-triazol-5-yl)methoxy)pyridazin-3-yl)piperazin-2-one], 7.39. The result for `O=C1CN(c2ccc(OCc3c(Cl)nnn3-c3ccc(Cl)cc3)nn2)CCN1` [Example 190, 4-(6-((4-Chloro-1-(4-chlorophenyl)-1H-1,2,3-triazol-5-yl)methoxy)pyridazin-3-yl)piperazin-2-one] reads 8.71; that for `O=C1CN(c2ccc(OCc3c(C(F)(F)F)nnn3-c3ccc(C(F)F)cc3)nn2)CCN1` [Example 191, 4-(6-((1-(4-(Difluoromethyl)phenyl)-4-(trifluoromethyl)-1H-1,2,3-triazol-5-yl)methoxy)pyridazin-3-yl)piperazin-2-one], 8.49; that for `Cc1nnn(-c2ccc(C(F)F)cc2)c1COc1ccc(N2CCN3c4ccncc4NC(=O)[C@@H]3C2)nn1` [Example 192, (S)-8-(6-((1-(4-(Difluoromethyl)phenyl)-4-methyl-1H-1,2,3-triazol-5-yl)methoxy)pyridazin-3-yl)-7,8,9,10-tetrahydro-5H-pyrazino[1,2-a]pyrido[3,4-e]pyrazin-6(6aH)-one], 7.76. On to `Cc1nnn(-c2ccc(C(F)F)cc2)c1COc1ccc(N2CCN3c4cccnc4NC(=O)[C@@H]3C2)nn1` [Example 193, (S)-3-(6-((1-(4-(difluoromethyl)phenyl)-4-methyl-1H-1,2,3-triazol-5-yl)methoxy)pyridazin-3-yl)-2,3,4,4a-tetrahydro-1H-pyrazino[1,2-a]pyrido[2,3-e]pyrazin-5(6H)-one], for which the negative-log Ki (pKi) is 8.84. The result for `Cc1nnn(-c2ccc(C(F)F)cc2)c1COc1ccc(N2CCN3c4ncccc4NC(=O)[C@@H]3C2)nn1` [Example 194, (S)-8-(6-((1-(4-(Difluoromethyl)phenyl)-4-methyl-1H-1,2,3-triazol-5-yl)methoxy)pyridazin-3-yl)-7,8,9,10-tetrahydro-5H-pyrazino[1,2-a]pyrido[3,2-e]pyrazin-6(6aH)-one] reads 9.10; that for `Cc1nnn(-c2ccc(C(F)F)cc2)c1COc1ccc(N2CCN3c4nc(F)ccc4NC(=O)[C@@H]3C2)nn1` [Example 195, (S)-8-(6-((1-(4-(Difluoromethyl)phenyl)-4-methyl-1H-1,2,3-triazol-5-yl)methoxy)pyridazin-3-yl)-2-fluoro-7,8,9,10-tetrahydro-5H-pyrazino[1,2-a]pyrido[3,2-e]pyrazin-6(6aH)-one], 9.27; that for `Cc1nnn(-c2ccc(C(F)F)cc2)c1COc1ccc(N2CCN3CC(c4cccc(Cl)c4)NC(=O)[C@@H]3C2)nn1` (stereo partly drawn) [Example 205, (9aS)-3-(3-Chlorophenyl)-8-(6-((1-(4-(difluoromethyl)phenyl)-4-methyl-1H-1,2,3-triazol-5-yl)methoxy)pyridazin-3-yl)hexahydro-2H-pyrazino[1,2-a]pyrazin-1(6H)-one], 8.68.

Regarding `Cc1nnn(-c2ccc(C(F)F)cc2)c1COc1nnc(N2CCN3CCNC(=O)[C@@H]3C2)c2ncccc12` [Example 206, (S)-8-(5-((1-(4-(Difluoromethyl)phenyl)-4-methyl-1H-1,2,3-triazol-5-yl)methoxy)pyrido[2,3-d]pyridazin-8-yl)hexahydro-2H-pyrazino[1,2-a]pyrazin-1(6H)-one], the negative-log Ki (pKi) is 9.19. Turning to `Cc1nnn(-c2ccc(C(F)F)cc2)c1COc1ccnc(N2CCNC(=O)C2)n1` [Example 213, 4-(4-((1-(4-(Difluoromethyl)phenyl)-4-methyl-1H-1,2,3-triazol-5-yl)methoxy)pyrimidin-2-yl)piperazin-2-one], the pKi was 7.27. For the compound `O=C1CN(c2ccc(OCc3cnnn3-c3ccc(Cl)cc3)nn2)CCN1` [Example 214, 4-(6-((1-(4-Chlorophenyl)-1H-1,2,3-triazol-5-yl)methoxy)pyridazin-3-yl)piperazin-2-one], the pKi is 7.31.

With `Cc1nnn(-c2ccc(C(F)F)cc2)c1COc1ccc(N2CC(C(C)C)N3CCNC[C@H]3C2=O)nn1` (stereo partly drawn) [Example 215], the pKi is 7.44.
